Reference: the NIST ThermoML archive (doi:10.1016/j.jct.2016.10.023)
± gives the expanded uncertainty stated by the source.

Assay: xn = mol fraction of the nth substance listed
Settings: Constant-volume piezometry

CCCCC [pentane] + CCCO
Settings | mass density [kg/m3]
543.15 K, 9051 kPa, Fluid (supercritical or subcritical phases), x1 = 0.2 | 378.24 ± 1.9
543.15 K, 9246 kPa, Fluid (supercritical or subcritical phases), x1 = 0.8 | 288.09 ± 1.4
543.15 K, 9255 kPa, Fluid (supercritical or subcritical phases), x1 = 0.2 | 383.04 ± 1.9
543.15 K, 9409 kPa, Fluid (supercritical or subcritical phases), x1 = 0.9 | 301.38 ± 1.5
543.15 K, 9589 kPa, Fluid (supercritical or subcritical phases), x1 = 0.2 | 390.87 ± 2
543.15 K, 9630 kPa, Fluid (supercritical or subcritical phases), x1 = 0.8 | 298.89 ± 1.5
543.15 K, 9923 kPa, Fluid (supercritical or subcritical phases), x1 = 0.9 | 312.01 ± 1.6
543.15 K, 10354 kPa, Fluid (supercritical or subcritical phases), x1 = 0.8 | 315.05 ± 1.6
543.15 K, 11098 kPa, Fluid (supercritical or subcritical phases), x1 = 0.9 | 333.7 ± 1.7
543.15 K, 11177 kPa, Fluid (supercritical or subcritical phases), x1 = 0.2 | 418.27 ± 2.1
543.15 K, 11295 kPa, Fluid (supercritical or subcritical phases), x1 = 0.8 | 333.52 ± 1.7
543.15 K, 11953 kPa, Fluid (supercritical or subcritical phases), x1 = 0.8 | 345.03 ± 1.7
543.15 K, 12737 kPa, Fluid (supercritical or subcritical phases), x1 = 0.9 | 353.77 ± 1.8
543.15 K, 13394 kPa, Fluid (supercritical or subcritical phases), x1 = 0.8 | 361.57 ± 1.8
543.15 K, 15943 kPa, Fluid (supercritical or subcritical phases), x1 = 0.2 | 469.86 ± 2.4
543.15 K, 19097 kPa, Fluid (supercritical or subcritical phases), x1 = 0.9 | 406.88 ± 2
543.15 K, 19983 kPa, Fluid (supercritical or subcritical phases), x1 = 0.8 | 417.78 ± 2.1
543.15 K, 22804 kPa, Fluid (supercritical or subcritical phases), x1 = 0.2 | 509.01 ± 2.6
543.15 K, 31784 kPa, Fluid (supercritical or subcritical phases), x1 = 0.8 | 466.21 ± 2.4
543.15 K, 33595 kPa, Fluid (supercritical or subcritical phases), x1 = 0.2 | 546.39 ± 2.8
543.15 K, 42744 kPa, Fluid (supercritical or subcritical phases), x1 = 0.8 | 495.57 ± 2.5
543.15 K, 49093 kPa, Fluid (supercritical or subcritical phases), x1 = 0.2 | 580.61 ± 2.9
553.15 K, 1401 kPa, Gas, x1 = 0.8 | 22.49 ± 0.07
553.15 K, 1675 kPa, Gas, x1 = 0.2 | 24.89 ± 0.08
553.15 K, 2144 kPa, Gas, x1 = 0.8 | 36.64 ± 0.11
553.15 K, 3159 kPa, Gas, x1 = 0.8 | 58.33 ± 0.18
553.15 K, 3511 kPa, Gas, x1 = 0.2 | 52.93 ± 0.16
553.15 K, 3789 kPa, Gas, x1 = 0.8 | 73.69 ± 0.23
553.15 K, 4048 kPa, Fluid (supercritical or subcritical phases), x1 = 0.9 | 83.26 ± 0.42
553.15 K, 4680 kPa, Gas, x1 = 0.2 | 91.28 ± 0.29
553.15 K, 4938 kPa, Fluid (supercritical or subcritical phases), x1 = 0.8 | 106.25 ± 0.54
553.15 K, 5296 kPa, Fluid (supercritical or subcritical phases), x1 = 0.9 | 123.17 ± 0.62
553.15 K, 5319 kPa, Fluid (supercritical or subcritical phases), x1 = 0.2 | 114.19 ± 0.59
553.15 K, 5611 kPa, Fluid (supercritical or subcritical phases), x1 = 0.9 | 133.93 ± 0.68
553.15 K, 6054 kPa, Fluid (supercritical or subcritical phases), x1 = 0.8 | 140.1 ± 0.71
553.15 K, 6100 kPa, Fluid (supercritical or subcritical phases), x1 = 0.2 | 150.13 ± 0.77
553.15 K, 6344 kPa, Fluid (supercritical or subcritical phases), x1 = 0.9 | 163.72 ± 0.83
553.15 K, 6388 kPa, Fluid (supercritical or subcritical phases), x1 = 0.8 | 155.82 ± 0.79
553.15 K, 6521 kPa, Fluid (supercritical or subcritical phases), x1 = 0.2 | 175.35 ± 0.91
553.15 K, 6714 kPa, Fluid (supercritical or subcritical phases), x1 = 0.2 | 189.36 ± 0.97
553.15 K, 6741 kPa, Fluid (supercritical or subcritical phases), x1 = 0.8 | 169.54 ± 0.86
553.15 K, 6874 kPa, Fluid (supercritical or subcritical phases), x1 = 0.8 | 175.77 ± 0.89
553.15 K, 6982 kPa, Fluid (supercritical or subcritical phases), x1 = 0.9 | 189.18 ± 0.96
553.15 K, 6985 kPa, Fluid (supercritical or subcritical phases), x1 = 0.8 | 180.56 ± 0.92
553.15 K, 7102 kPa, Fluid (supercritical or subcritical phases), x1 = 0.2 | 219.77 ± 1.1
553.15 K, 7277 kPa, Fluid (supercritical or subcritical phases), x1 = 0.9 | 202.08 ± 1
553.15 K, 7296 kPa, Fluid (supercritical or subcritical phases), x1 = 0.8 | 192.88 ± 0.98
553.15 K, 7439 kPa, Fluid (supercritical or subcritical phases), x1 = 0.2 | 245.11 ± 1.3
553.15 K, 7620 kPa, Fluid (supercritical or subcritical phases), x1 = 0.2 | 258.81 ± 1.3
553.15 K, 7669 kPa, Fluid (supercritical or subcritical phases), x1 = 0.2 | 262.51 ± 1.4
553.15 K, 7760 kPa, Fluid (supercritical or subcritical phases), x1 = 0.9 | 220.36 ± 1.1
553.15 K, 7786 kPa, Fluid (supercritical or subcritical phases), x1 = 0.8 | 213.54 ± 1.1
553.15 K, 7792 kPa, Fluid (supercritical or subcritical phases), x1 = 0.2 | 271.95 ± 1.4
553.15 K, 7945 kPa, Fluid (supercritical or subcritical phases), x1 = 0.8 | 219.29 ± 1.1
553.15 K, 8057 kPa, Fluid (supercritical or subcritical phases), x1 = 0.2 | 290.1 ± 1.5
553.15 K, 8082 kPa, Fluid (supercritical or subcritical phases), x1 = 0.9 | 232.72 ± 1.2
553.15 K, 8169 kPa, Fluid (supercritical or subcritical phases), x1 = 0.9 | 236.18 ± 1.2
553.15 K, 8267 kPa, Fluid (supercritical or subcritical phases), x1 = 0.9 | 240.57 ± 1.2
553.15 K, 8315 kPa, Fluid (supercritical or subcritical phases), x1 = 0.8 | 234.36 ± 1.2
553.15 K, 8323 kPa, Fluid (supercritical or subcritical phases), x1 = 0.2 | 306.36 ± 1.6
553.15 K, 8361 kPa, Fluid (supercritical or subcritical phases), x1 = 0.9 | 243.88 ± 1.2
553.15 K, 8384 kPa, Fluid (supercritical or subcritical phases), x1 = 0.2 | 310.58 ± 1.6
553.15 K, 8538 kPa, Fluid (supercritical or subcritical phases), x1 = 0.2 | 318.29 ± 1.6
553.15 K, 8586 kPa, Fluid (supercritical or subcritical phases), x1 = 0.8 | 244.98 ± 1.2
553.15 K, 8982 kPa, Fluid (supercritical or subcritical phases), x1 = 0.8 | 258.18 ± 1.3
553.15 K, 9164 kPa, Fluid (supercritical or subcritical phases), x1 = 0.2 | 340.74 ± 1.7
553.15 K, 9236 kPa, Fluid (supercritical or subcritical phases), x1 = 0.2 | 343.52 ± 1.7
553.15 K, 9433 kPa, Fluid (supercritical or subcritical phases), x1 = 0.8 | 272.13 ± 1.4
553.15 K, 9589 kPa, Fluid (supercritical or subcritical phases), x1 = 0.9 | 281.59 ± 1.4
553.15 K, 10042 kPa, Fluid (supercritical or subcritical phases), x1 = 0.8 | 287.95 ± 1.4
553.15 K, 10274 kPa, Fluid (supercritical or subcritical phases), x1 = 0.9 | 301.23 ± 1.5
553.15 K, 10469 kPa, Fluid (supercritical or subcritical phases), x1 = 0.8 | 298.75 ± 1.5
553.15 K, 10491 kPa, Fluid (supercritical or subcritical phases), x1 = 0.2 | 378.05 ± 1.9
553.15 K, 10735 kPa, Fluid (supercritical or subcritical phases), x1 = 0.2 | 382.84 ± 1.9
